Source: patent US20240425464A1, “Substituted Monohydrazides as Potent Antifungal Agents” (University of Kentucky Research Foundation, priority 2023, published 2024)
Converted amounts (≈) assume the structure as drawn. Like-named read-outs stand apart in the source and are kept apart here.

What was measured:
Assay in all cases: MIC determination by in vitro antifungal assay
[1] = system: C. albicans ATCC 64124 (B); assay type: cell-based, Candida albicans
How it was run: (§1)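 Broth microdilution following CLSI M27-A3/M38-A2 with modifications, in RPMI 1640 buffered to pH 7.0 with 0.165 M MOPS. Yeast inoculum adjusted to OD600 0.12 and diluted 1:100. Compounds tested at 0.06–31.3 μg/mL by double dilution; incubation 48 h at 35° C.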

[2] = system: C. albicans ATCC 90819 (D); assay type: cell-based, Candida albicans
How it was run: as §1

[3] = system: C. albicans ATCC MYA-1003 (G); assay type: cell-based, Candida albicans; settings: strain G = C. albicans ATCC MYA-1063(R) (footnote), MYA-1003 in text
How it was run: as §1

[4] = system: C. albicans ATCC MYA-1237 (F); assay type: cell-based, Candida albicans; settings: strain F = C. albicans ATCC MYA-1237(R)
How it was run: as §1

[5] = system: C. albicans ATCC MYA-2310 (E); assay type: cell-based, Candida albicans; settings: strain E = C. albicans ATCC MYA-2310
How it was run: as §1

[6] = system: C. albicans ATCC MYA-2876 (C); assay type: cell-based, Candida albicans; settings: strain C = C. albicans ATCC MYA-2876(S)
How it was run: as §1

[7] = system: Candida glabrata ATCC 2001 (H); assay type: cell-based; settings: ATCC 2001 in text
How it was run: as §1

[8] = system: Candida krusei ATCC 6258 (I); assay type: cell-based
How it was run: as §1

[9] = system: Candida parapsilosis ATCC 22019 (J); assay type: cell-based
How it was run: as §1

[10] = strain B = C. albicans ATCC 64124
[11] = strain D = C. albicans ATCC 90819(R)
[12] = strain H = C. glabrata ATCC 2004 (footnote)
[13] = strain J = C. parapsilosis ATCC 22019
[14] = Candida albicans, ATCC64124, strain B = C. albicans ATCC 64124, read-out: MIC
[15] = Candida albicans, ATCC90819, strain D = C. albicans ATCC 90819(R), read-out: MIC
[16] = Candida albicans, read-out: MIC
[17] = Nakaseomyces glabratus, ATCC 2001 / ATCC 2004, strain H = C. glabrata ATCC 2004 (footnote), read-out: MIC
[18] = Pichia kudriavzevii, ATCC6258, strain I = C. krusei ATCC 6258, read-out: MIC
[19] = Lodderomyces parapsilosis, ATCC22019, strain J = C. parapsilosis ATCC 22019, read-out: MIC

Row | Structure (SMILES) | MIC [1, 10] [μg/mL^−1] | MIC [2, 11] [μg/mL^−1] | MIC [3] [μg/mL^−1] | MIC [4] [μg/mL^−1] | MIC [5] [μg/mL^−1] | MIC [6] [μg/mL^−1] | MIC [7, 12] [μg/mL^−1] | MIC ([8]; strain I = C. krusei ATCC 6258) [μg/mL^−1] | MIC [9, 13] [μg/mL^−1] | MIC [1, 14] [µg/mL] | MIC [2, 15] [µg/mL] | MIC [3, 16] [µg/mL] | MIC [4, 16] [µg/mL] | MIC [5, 16] [µg/mL] | MIC [6, 16] [µg/mL] | MIC [7, 17] [µg/mL] | MIC [8, 18] [µg/mL] | MIC [9, 19] [µg/mL]
1 | O=C(NNc1ccc(Cl)cc1)c1cnccn1 [Compound 9e] | 1.95 | 0.98 | 1.95 | 0.98 | 1.95 | 3.9 | 1.95 | 3.9 | 7.8 |  |  |  |  |  |  |  |  | 
2 | O=C(NNc1cccc(F)c1)c1nc(F)ccc1F [Compound 8a] | 0.98 | 3.9 | 0.98 | 1.95 | 1.95 | 1.95 | 15.6 | 0.49 | 7.8 |  |  |  |  |  |  |  |  | 
3 | O=C(NNc1ccc(F)cc1)c1cnccn1 [Compound 9d] |  |  |  |  |  |  |  |  |  | 1.98 (≈ 8.53 µM) | 0.98 (≈ 4.22 µM) | 1.95 (≈ 8.4 µM) | 0.98 (≈ 4.22 µM) | 7.8 (≈ 33.6 µM) | 7.8 (≈ 33.6 µM) | 3.9 (≈ 16.8 µM) | 0.49 (≈ 2.11 µM) | 3.9 (≈ 16.8 µM)
4 | COc1ccc(NNC(=O)c2cccc(Br)n2)cc1 [Compound 6f] |  |  |  |  |  |  |  |  |  | 3.9 (≈ 12.1 µM) | 3.9 (≈ 12.1 µM) | 3.9 (≈ 12.1 µM) | 0.98 (≈ 3.04 µM) | 3.9 (≈ 12.1 µM) | 1.95 (≈ 6.05 µM) | 1.95 (≈ 6.05 µM) | 0.98 (≈ 3.04 µM) | 3.9 (≈ 12.1 µM)
5 | O=C(NNc1ccc(F)cc1F)c1ncc(F)cc1F [Compound 7g] |  |  |  |  |  |  |  |  |  | 3.9 (≈ 13.7 µM) | 3.9 (≈ 13.7 µM) | 1.95 (≈ 6.84 µM) | 3.9 (≈ 13.7 µM) | 3.9 (≈ 13.7 µM) | 3.9 (≈ 13.7 µM) | > 31.3 | 0.98 (≈ 3.44 µM) | 31.3 (≈ 110 µM)
6 | O=C(NNc1ccc(F)cc1)c1cccc(F)n1 [Compound 5d] |  |  |  |  |  |  |  |  |  | 0.98 (≈ 3.93 µM) | 1.95 (≈ 7.82 µM) | 0.98 (≈ 3.93 µM) | 1.95 (≈ 7.82 µM) | 3.9 (≈ 15.6 µM) | 1.95 (≈ 7.82 µM) | 15.6 (≈ 62.6 µM) | 0.49 (≈ 1.97 µM) | 3.9 (≈ 15.6 µM)
7 | COc1ccc(NNC(=O)c2cccc(F)n2)cc1 [Compound 5f] |  |  |  |  |  |  |  |  |  | 1.95 (≈ 7.46 µM) | 1.95 (≈ 7.46 µM) | 0.98 (≈ 3.75 µM) | 0.98 (≈ 3.75 µM) | 0.98 (≈ 3.75 µM) | 0.98 (≈ 3.75 µM) | 0.98 (≈ 3.75 µM) | 0.49 (≈ 1.88 µM) | 7.8 (≈ 29.9 µM)
8 | O=C(NNc1ccc(F)cc1)c1ccccn1 [Compound 2d] |  |  |  |  |  |  |  |  |  | 0.98 (≈ 4.24 µM) | 0.98 (≈ 4.24 µM) | 0.49 (≈ 2.12 µM) | 1.95 (≈ 8.43 µM) | 1.95 (≈ 8.43 µM) | 3.9 (≈ 16.9 µM) | 1.95 (≈ 8.43 µM) | 0.12 (≈ 0.519 µM) | 1.95 (≈ 8.43 µM)
9 | COc1cccc(NNC(=O)c2nc(F)ccc2F)c1 [Compound 8c] |  |  |  |  |  |  |  |  |  | 1.95 (≈ 6.98 µM) | 7.8 (≈ 27.9 µM) | 1.95 (≈ 6.98 µM) | 1.95 (≈ 6.98 µM) | 3.9 (≈ 14 µM) | 3.9 (≈ 14 µM) | 15.6 (≈ 55.9 µM) | 15.6 (≈ 55.9 µM) | 7.8 (≈ 27.9 µM)
10 | O=C(NNc1cccc(Cl)c1)c1ccc(F)cc1F [Compound 1b] |  |  |  |  |  |  |  |  |  | 7.8 (≈ 27.6 µM) | 15.6 (≈ 55.2 µM) | 3.9 (≈ 13.8 µM) | 3.9 (≈ 13.8 µM) | 7.8 (≈ 27.6 µM) | 7.8 (≈ 27.6 µM) | > 31.3 | 0.98 (≈ 3.47 µM) | 3.9 (≈ 13.8 µM)
11 | O=C(NNc1ccc(F)cc1)c1cccc(Br)n1 [Compound 6d] |  |  |  |  |  |  |  |  |  | 1.95 (≈ 6.29 µM) | 3.9 (≈ 12.6 µM) | 1.95 (≈ 6.29 µM) | 3.9 (≈ 12.6 µM) | 3.9 (≈ 12.6 µM) | 3.9 (≈ 12.6 µM) | > 31.3 | 0.49 (≈ 1.58 µM) | 7.8 (≈ 25.2 µM)
12 | O=C(NNc1cccc(F)c1)c1cnccn1 [Compound 9a] | 1.95 | 0.98 | 0.98 | 0.98 | 7.8 | 3.9 | 7.8 | 0.49 | 3.9 |  |  |  |  |  |  |  |  | 
13 | O=C(NNc1cc(F)cc(F)c1)c1cnccn1 [Compound 9i] |  |  |  |  |  |  |  |  |  | 3.9 (≈ 15.6 µM) | 3.9 (≈ 15.6 µM) | 1.95 (≈ 7.79 µM) | 1.95 (≈ 7.79 µM) | 15.6 (≈ 62.3 µM) | 7.8 (≈ 31.2 µM) | 7.8 (≈ 31.2 µM) | 0.49 (≈ 1.96 µM) | 3.9 (≈ 15.6 µM)
14 | O=C(NNc1ccc(F)cc1)c1ncc(F)cc1F [Compound 7d] |  |  |  |  |  |  |  |  |  | 1.95 (≈ 7.3 µM) | 1.95 (≈ 7.3 µM) | 0.98 (≈ 3.67 µM) | 1.95 (≈ 7.3 µM) | 3.9 (≈ 14.6 µM) | 1.95 (≈ 7.3 µM) | 15.6 (≈ 58.4 µM) | 0.49 (≈ 1.83 µM) | 3.9 (≈ 14.6 µM)
15 | O=C(NNc1ccc(F)cc1)c1ccc(Br)cn1 [Compound 4d] |  |  |  |  |  |  |  |  |  | 7.8 (≈ 25.2 µM) | 7.8 (≈ 25.2 µM) | 1.9 (≈ 6.13 µM) | 7.8 (≈ 25.2 µM) | 7.8 (≈ 25.2 µM) | 7.8 (≈ 25.2 µM) | > 31.3 | 0.98 (≈ 3.16 µM) | 7.8 (≈ 25.2 µM)
16 | O=C(NNc1ccc(Cl)cc1)c1cccc(F)n1 [Compound 5e] | 1.95 | 3.9 | 0.98 | 0.98 | 1.95 | 1.95 | 3.9 | 1.95 | 15.6 |  |  |  |  |  |  |  |  | 
17 | O=C(NNc1cc(Cl)cc(Cl)c1)c1ccccn1 [Compound 2j] |  |  |  |  |  |  |  |  |  | 1.95 (≈ 6.91 µM) | 0.98 (≈ 3.47 µM) | 1.95 (≈ 6.91 µM) | 3.9 (≈ 13.8 µM) | 1.95 (≈ 6.91 µM) | 1.95 (≈ 6.91 µM) | 7.8 (≈ 27.6 µM) | 0.98 (≈ 3.47 µM) | 1.95 (≈ 6.91 µM)
18 | O=C(NNc1ccc(Cl)cc1)c1ncc(F)cc1F [Compound 7e] | 3.9 | 7.8 | 1.95 | 0.49 | 1.95 | 3.9 | 3.9 | 1.95 | 15.6 |  |  |  |  |  |  |  |  | 
19 | O=C(NNc1cccc(F)c1)c1ccc(Br)cn1 [Compound 4a] | 0.49 | 3.9 | 0.98 | 3.9 | 3.9 | 1.95 | >31.3 | 0.24 | 7.8 |  |  |  |  |  |  |  |  | 
20 | O=C(NNc1ccc(F)cc1F)c1ccc(F)cn1 [Compound 3g] |  |  |  |  |  |  |  |  |  | 1.95 (≈ 7.3 µM) | 1.95 (≈ 7.3 µM) | 0.98 (≈ 3.67 µM) | 1.95 (≈ 7.3 µM) | 1.95 (≈ 7.3 µM) | 1.95 (≈ 7.3 µM) | 31.3 (≈ 117 µM) | 0.98 (≈ 3.67 µM) | 31.3 (≈ 117 µM)
21 | O=C(NNc1cc(Cl)cc(Cl)c1)c1cnccn1 [Compound 9j] |  |  |  |  |  |  |  |  |  | 3.9 (≈ 13.8 µM) | 1.95 (≈ 6.89 µM) | 3.9 (≈ 13.8 µM) | 1.95 (≈ 6.89 µM) | 7.8 (≈ 27.6 µM) | 3.9 (≈ 13.8 µM) | 15.6 (≈ 55.1 µM) | 0.98 (≈ 3.46 µM) | 3.9 (≈ 13.8 µM)
22 | O=C(NNc1ccc(F)cc1)c1ccc(F)cc1F [Compound 1d] |  |  |  |  |  |  |  |  |  | 7.8 (≈ 29.3 µM) | 1.95 (≈ 7.32 µM) | 1.95 (≈ 7.32 µM) | 1.95 (≈ 7.32 µM) | 3.9 (≈ 14.6 µM) | 7.8 (≈ 29.3 µM) | 7.8 (≈ 29.3 µM) | 1.95 (≈ 7.32 µM) | 15.6 (≈ 58.6 µM)
23 | O=C(NNc1ccc(F)cc1F)c1ccc(F)cc1F [Compound 1g] |  |  |  |  |  |  |  |  |  | 1.95 (≈ 6.86 µM) | 3.9 (≈ 13.7 µM) | 0.98 (≈ 3.45 µM) | 1.95 (≈ 6.86 µM) | > 31.3 | 3.9 (≈ 13.7 µM) | 1.95 (≈ 6.86 µM) | 7.8 (≈ 27.4 µM) | 7.8 (≈ 27.4 µM)
24 | O=C(NNc1cc(F)ccc1F)c1cnccn1 [Compound 9h] |  |  |  |  |  |  |  |  |  | 7.8 (≈ 31.2 µM) | 3.9 (≈ 15.6 µM) | 1.95 (≈ 7.79 µM) | 3.9 (≈ 15.6 µM) | > 31.3 | 3.9 (≈ 15.6 µM) | 15.6 (≈ 62.3 µM) | 0.49 (≈ 1.96 µM) | 7.8 (≈ 31.2 µM)
